From patent US20210361600A1, “METHODS FOR INDUCING CHONDROGENESIS” (THE SCRIPPS RESEARCH INSTITUTE, priority 2017, published 2021)
Entries after “also recorded” stand apart in the source; their conditions may differ. Like-named read-outs stand apart in the source and are kept apart here.

Key:
Human MSCs = test: Human chondrocyte differentiation assay; type: cell-based; conditions: 7 days; type II collagen, Sox9 and COMP immunostaining
Description: Human MSCs (50,000) were plated into each well of a 96-well plate and cultured overnight. […] The cells were fixed with 10% formalin solution at room temperature for 10 min, and immunostained using antibodies specific for type II collagen (Abcam), Sox9 (Santa Cruz) and cartilage oligomeric matrix protein (COMP, Santa Cruz), and fluorescently labeled secondary antibodies (Li-Cor). The total intensity of the staining was measured using Oddyssey CLx imaging system (Li-Cor). Vehicle (DMSO) was used as control to determine the basal level of chondrocyte differentiation. The result is shown in Table 1 [A: >50% increase in staining intensity compared to vehicle control; B: 30-50% increase in staining intensity compared to vehicle control].

[1] = system: Canine Model of Osteoarthritis; test: Efficacy of compound A in a canine model of osteoarthritis; type: in vivo, Beagle dogs
Description: The clear solution was then filtered in a 0.45 μm filter prior to intraarticular dose. Dosing solution was prepared fresh on the day of dosing.
Twelve to fifteen-month-old female naïve Beagle dogs were obtained from Marshall BioResouces (North Rose, N.Y.) with a weight range of 5.4 to 9.3 kilograms.
The goal was to sort and ensure that behavioral characteristics were shared among all groups, so that the activity level and use of the joints while not in regimented exercise would be uniform between groups. In addition to sorting by temperament, animals were also sorted by body weights, with equal distribution between study groups. Animals were acclimated to an exercise regimen of 1 hour of walking/running/playing prior to study start.
Animals were food deprived prior to surgery, anesthetized using propofol (6 mg/kg, IV), and maintained on isoflurane (3-4%) in oxygen (2 L/min) for the duration of the procedure (10-15 minutes). The right rear knee was shaved and aseptically prepared. A medial skin incision was made to expose the collateral ligament. A portion of the medial meniscus was cut (a wedge roughly half the width of the medial meniscus was removed). The joint capsule and subcutis were closed with sutures, and skin closed with wound clips. Sham animals were treated in the same manner except for the medial meniscus partial transection. All animals were allowed to recover for 10-11 days prior to dosing. Three days after surgery, all animals began an exercise regimen of one hour of continuous exercise (walking/running/playing), to ensure that the animals were using the surgerized leg and to allow for a more uniform development of lesions across a group of differently tempered dogs.
All animals were exercised 5 days a week for an hour for the duration of the study. At study day 10/11, animals began receiving weekly injections of either compound or vehicle into the surgerized joint. Blood samples were also taken pre-dose for all animals for compound determination. Animals received doses at day 10, 17, 24, 31, 38, and 45 post surgery. All intraarticular doses were standardized to 0.5 mL injections into the joint capsule via injection through the patellar ligament.
On day 52, animals received a terminal blood sample and were euthanized. Plasma samples were used for biomarker determination. Urine and synovial fluid was collected at necropsy, and the knees were harvested for histology and pathology analysis.
Osteoarthritic lesions were scored based on lesion size, depth, severity and changes in subchondral bone and osteophyte formation. Both the femur and the tibia on either side of the meniscal cut were examined. Statistical analysis used Student's two-tailed test or Mann-Whitney U Test (non-parametric).
For terminal plasma samples, biomarker ELISAs were run to quantify levels of PIINP. The kit procedures were followed as per manufacturer's instructions. Data were analyzed with a Student's t-test.

CBFβ = CBFβ nuclear localization in hMSCs (Western blotting); type: cell-based, human; conditions: hMSCs, 1, 10 and 100 nM, 1 hour
Description: Primary human MSCs were obtained from Cell Applications. The hMSCs were grown in Mesenchymal Stem Cell expansion media and used between passage 2 and 8 for all experiments. Nuclear cell lysate fractionation and western blotting
The cells were scraped off the dishes mechanically, and pipetted gently to break the cell debris. The cell lysate was centrifuged at 2000 rpm at 4° C. for 5 min and the supernatant was saved as the cytosolic fraction. The pellet was washed with washing buffer (20 mM HEPES, pH 7.9, 20% glycerol, 0.2 mM EDTA, 1 mM DTT and protease inhibitor cocktail) once and centrifuged at 2000 rpm for 5 min. The supernatant was discarded, the pellets were suspended in nuclear extraction buffer (2 mM HEPES, pH7.9, 400 mM NaCl, 20% glycerol, 0.2 mM EDTA, 1 mM DTT and protease inhibitor cocktail) and then incubated on ice for 45 min. The mixture was centrifuged at 13,000 rpm for 15 min at 4° C., and the supernatant was saved as nuclear fraction.
Proteins were resolved using SDS-PAGE gel electrophoresis, transferred to a PVDF membrane using semi-dry blotting cell. The membrane was blocked in blocking buffer (LiCor) for 1 hr at room temperature, followed by incubation with primary antibody in blocking buffer at 4° C. overnight. […]

SOX9 = test: In vitro chondrogenesis, transcript level by qPCR; type: cell-based, human; conditions: for Induction of SOX9: 7-day treatment
Description: (§1) The RNA was exacted using RNeasy kit following the manufacturer's protocol. cDNA was synthesized using SuperScript III first strand synthesis kit and the transcript levels of proteoglycan 4 (PRG4), sex-determining region Y-Box 9 ([…]) and cartilage-oligo matrix protein (COMP) were determined using Taqman gene expression assays (probes) from ThermoFisher.
(§2) ΔΔCT method was applied to calculate the relative abundance of each gene using ([…] as normalizing control using ViiA 7 RUO software (ThermoFisher). The abundance of each gene of each sample was expressed as fold over DMSO-treated controls. n=3. Dose response for each marker gene was analyzed using GraphPad Prism 7 software.

[2] = system: cartilage-oligo matrix protein (COMP); test: In vitro chondrogenesis, transcript level by qPCR; type: cell-based, human; conditions: for Induction of COMP: 7-day treatment
Description: as §1, §2

proteoglycan 4 (PRG4) = test: In vitro chondrogenesis, transcript level by qPCR; type: cell-based, human; conditions: for Induction of PRG4: 7-day treatment
Description: as §1, §2

[3] = Intra-articular single dose pharmacokinetics study in rat; type: in vivo; conditions: for concentration in the knee: 1.05 μg/knee
[4] = dog, in vivo
in vivo = conditions: male, Crl:CD(SD), rat, 2.1 ug
[5] = Intra-articular acute toxicity study in the Beagle dog (toxicokinetics); conditions: for Tlast / AUC(0-t) / Cmax: male dogs, plasma
[6] = 0.035 mg/knee IA weekly for 6 weeks, vs vehicle
[7] = rat, plasma, 1.05 ug, single IA dose 1.05 μg/knee
[8] = dose increment of 2.9 fold (from 35 to 100 ng)
[9] = single IA 35 μg/knee, individual animals 41M, 42M
[10] = single IA 100 μg/knee, individual animals 43M, 44M
[11] = single IA 200 μg/knee, individual animals 45M, 46M

## COCCc1ccc(NC(=O)c2ccccc2NS(C)(=O)=O)cc1 [Compound A, N-(4-(2-methoxyethyl)phenyl)-2-(methylsulfonamido)benzamide]
Human MSCs
  Biological Activity (increase in staining intensity compared to vehicle control): A (>50% increase in staining intensity compared to vehicle control)
[1]; [6]
  degree of substantial cartilage degeneration in the femur: significantly improved; also recorded: significant reduction
  level of bone sclerosis: reduced; also recorded: improved
  width of total cartilage degeneration (all severities), femur: no effect
[1]; effect not statistically significant
  tibial cartilage damage: less severe
[1]; terminal samples 1 week post final dose, vs vehicle
  circulating PIINP in plasma (ELISA): significantly elevated
CBFβ
  CBFβ levels in the nuclear fraction: increase
SOX9; 0.457 nM
  Induction of SOX9: 1.022 ± 0.231 fold increase
SOX9; 1.37 nM
  Induction of SOX9: 1.002 ± 0.260 fold increase
SOX9; 4.11 nM
  Induction of SOX9: 3.296 ± 0.719 fold increase
SOX9; 12.3 nM
  Induction of SOX9: 2.505 ± 0.242 fold increase
SOX9; 37.0 nM
  Induction of SOX9: 1.768 ± 0.264 fold increase
SOX9; 111 nM
  Induction of SOX9: 1.977 ± 0.721 fold increase
SOX9; 333 nM
  Induction of SOX9: 4.193 ± 0.765 fold increase
SOX9; 168 h, primary human MSCs, 7 days, read-out: EC50 (SOX9 induction)
  EC50: ~2.2 nM
[2]; 0.457 nM
  Induction of COMP: 1.005 ± 0.100 fold increase
[2]; 1.37 nM
  Induction of COMP: 0.776 ± 0.107 fold increase
[2]; 4.11 nM
  Induction of COMP: 1.322 ± 0.804 fold increase
[2]; 12.3 nM
  Induction of COMP: 2.942 ± 0.575 fold increase
[2]; 37.0 nM
  Induction of COMP: 1.356 ± 0.590 fold increase
[2]; 111 nM
  Induction of COMP: 0.706 ± 0.193 fold increase
[2]; 333 nM
  Induction of COMP: 1.896 ± 0.187 fold increase
[2]; 1000 nM
  Induction of COMP: 3.121 ± 0.709 fold increase
[2]; 168 h, primary human MSCs, 7 days, read-out: EC50 (COMP induction)
  EC50: ~4.5 nM
Proteoglycan 4 (PRG4); 0.457 nM
  Induction of PRG4: 1.082 ± 0.493 fold increase
Proteoglycan 4 (PRG4); 1.37 nM
  Induction of PRG4: 0.582 ± 0.513 fold increase
Proteoglycan 4 (PRG4); 4.11 nM
  Induction of PRG4: 1.795 ± 0.561 fold increase
Proteoglycan 4 (PRG4); 12.3 nM
  Induction of PRG4: 2.226 ± 0.378 fold increase
Proteoglycan 4 (PRG4); 37.0 nM
  Induction of PRG4: 1.204 ± 0.360 fold increase
Proteoglycan 4 (PRG4); 111 nM
  Induction of PRG4: 1.024 ± 0.700 fold increase
Proteoglycan 4 (PRG4); 333 nM
  Induction of PRG4: 2.22 ± 0.960 fold increase
Proteoglycan 4 (PRG4); 1000 nM
  Induction of PRG4: 2.134 ± 0.785 fold increase
Proteoglycan 4 (PRG4); 168 h, primary human MSCs, 7 days, read-out: EC50 (PRG4 induction)
  EC50: ~3.9 nM
[3]; 120 minutes after single IA injection
  concentration in the knee: LLQ
[3]; immediately after single IA injection
  concentration in the knee: 925.5 ng/mL
[3]; [7]
  AUC(0-inf): 33.9 ng·h/mL
  Cmax: 53.3 ng/mL
[3]; rat, plasma, 1.05 ug, single IA dose 1.05 μg/knee, read-out: plasma t1/2 (converted)
  half-life: 28.9 min
[4]; both, beagle, iv, 1.25 mg/kg
  time up to which quantifiable in the plasma of all animals: at least 12 hours
[4]
  gender differences in systemic exposure (Cmax and AUC0-t): no significant gender differences
[4]; iv
  differences in systemic exposure following single and repeat weekly IV administration: no significant differences
[4]; female, Beagle, iv, 0.125 mg/kg
  Cmax: 209 ng/mL
[4]; female, Beagle, iv, 0.6 mg/kg
  Cmax: 1190 ng/mL
[4]; female, Beagle, iv, 1.25 mg/kg
  AUC(0-t): 2300 ng·h/mL
  Cmax: 2480 ng/mL
[4]; male, beagle, iv, 0.125 mg/kg
  AUC(0-t): 211 ng·h/mL
  Cmax: 197 ng/mL
[4]; male, beagle, iv, 0.6 mg/kg
  AUC(0-t): 1400 ng·h/mL
  Cmax: 1140 ng/mL
[4]; male, beagle, iv, 1.25 mg/kg
  AUC(0-t): 2510 ng·h/mL
  Cmax: 2150 ng/mL
In vivo
  Cmax: 13.8 ng/mL
[5]; at study termination, below the LLQ
  concentrations in synovial fluid samples: < 0.5 ng/mL
[5]; [8]
  increase in mean AUC0-t: 0.7 fold
  increase in mean Cmax: 0.7 fold
[5]; dose increment of 5.7 fold
  increase in mean AUC0-t: approximately 1.5 fold
  increase in mean Cmax: approximately 1.5 fold
[5]; single IA 35 μg/knee, Mean
  Tlast: 4.00 h
[5]; [9]
  AUC(0-t): 5.41 ng·h/mL
  Cmax: 2.21 ng/mL
  Tlast: 4.00 h
[5]; single IA 100 μg/knee, Mean
  Tlast: 4.00 h
[5]; [10]
  AUC(0-t): 11.7 ng·h/mL
  Cmax: 4.75 ng/mL
  Tlast: 4.00 h
[5]; single IA 200 μg/knee, Mean
  Tlast: 4.00 h
[5]; [11]
  AUC(0-t): 9.60 ng·h/mL
  Cmax: 3.21 ng/mL
  Tlast: 4.00 h
[5]; male, beagle, dog, 35 μg/knee, AUC0-t, single IA 35 μg/knee, Mean
  AUC(0-t): 5.31 ng·h/mL
[5]; male, beagle, dog, 35 μg/knee, AUC0-t, single IA 35 μg/knee, individual animals 41M, 42M
  AUC(0-t): 5.21 ng·h/mL
[5]; male, beagle, dog, 35 μg/knee, Cmax, single IA 35 μg/knee, Mean
  Cmax: 2.17 ng/mL
[5]; male, beagle, dog, 35 μg/knee, Cmax, single IA 35 μg/knee, individual animals 41M, 42M
  Cmax: 2.14 ng/mL
[5]; male, beagle, dog, 100 μg/knee, AUC0-t, single IA 100 μg/knee, Mean
  AUC(0-t): 12.3 ng·h/mL
[5]; male, beagle, dog, 100 μg/knee, AUC0-t, single IA 100 μg/knee, individual animals 43M, 44M
  AUC(0-t): 13 ng·h/mL
[5]; male, beagle, dog, 100 μg/knee, Cmax, single IA 100 μg/knee, Mean
  Cmax: 4.59 ng/mL
[5]; male, beagle, dog, 100 μg/knee, Cmax, single IA 100 μg/knee, individual animals 43M, 44M
  Cmax: 4.43 ng/mL
[5]; male, beagle, dog, 200 μg/knee, AUC0-t, single IA 200 μg/knee, Mean
  AUC(0-t): 8.89 ng·h/mL
[5]; male, beagle, dog, 200 μg/knee, AUC0-t, single IA 200 μg/knee, individual animals 45M, 46M
  AUC(0-t): 8.18 ng·h/mL
[5]; male, beagle, dog, 200 μg/knee, Cmax, single IA 200 μg/knee, Mean
  Cmax: 3.01 ng/mL
[5]; male, beagle, dog, 200 μg/knee, Cmax, single IA 200 μg/knee, individual animals 45M, 46M
  Cmax: 2.81 ng/mL
